pEC50, pIC50: −log10 of the molar value.
Assays:
[1] = Unbound brain-to-plasma concentration ratio in Sprague-Dawley rat at 0.1 to 0.2 mg/kg, iv measured after 1.5 hrs; type: ADME, organism-based; conditions: dose 0.1-0.2 mg/kg, read-out: K(p,uu,brain)
Rattus norvegicus [2] = species on record: Rattus norvegicus; assay: Displacement of [3H]-MDL105519 from NMDA glutamate receptor glycine binding site in Wistar rat brain assessed as residual binding level for radioligand at 10 uM incubated for 30 mins by scintillation counting analysis relative to control; type: tissue-based
Rattus norvegicus [3] = species on record: Rattus norvegicus; assay: Displacement of [3H]Muscimol from GABAA channel muscimol binding site in Wistar rat brain assessed as residual binding level for radioligand at 10 uM incubated for 10 mins by scintillation counting analysis relative to control; type: tissue-based
[4] = molecular target: L-type calcium channel Cav1.2, benzothiazepine binding site (Rattus norvegicus, UniProt P22002); assay: Displacement of [3H]-Diltiazem from L-type calcium channel Cav1.2 benzothiazepine binding site in Wistar rat brain membrane assessed as residual binding level for radioligand at 10 uM incubated for 180 mins by radiometric scintillation analysis relative to control; type: cell membranes; conditions: probe [3H]-Diltiazem, read-out: Activity
[5] = molecular target: Muscarinic acetylcholine receptor M5 (Rattus norvegicus, UniProt P08911); assay: Positive allosteric modulation of rat M5 receptor
[6] = molecular target: Muscarinic acetylcholine receptor M2 (Homo sapiens) (UniProt P08172); assay: Displacement of [3H]N-Methylscopolamine from full length human recombinant muscarinic M2 receptor expressed in CHO-K1 cells assessed as residual binding level for radioligand at 10 uM measured after 120 mins by radiometric scintillation analysis relative to control; type: cell-based
[7] = molecular target: T1, Muscarinic acetylcholine receptor M4 (Homo sapiens, UniProt P08173); assay: Positive allosteric modulation of human M4 receptor/Gqi5 in presence of EC20 acetylcholine by calcium mobilization assay; type: functional
T1 sequence (P08173 whole entry): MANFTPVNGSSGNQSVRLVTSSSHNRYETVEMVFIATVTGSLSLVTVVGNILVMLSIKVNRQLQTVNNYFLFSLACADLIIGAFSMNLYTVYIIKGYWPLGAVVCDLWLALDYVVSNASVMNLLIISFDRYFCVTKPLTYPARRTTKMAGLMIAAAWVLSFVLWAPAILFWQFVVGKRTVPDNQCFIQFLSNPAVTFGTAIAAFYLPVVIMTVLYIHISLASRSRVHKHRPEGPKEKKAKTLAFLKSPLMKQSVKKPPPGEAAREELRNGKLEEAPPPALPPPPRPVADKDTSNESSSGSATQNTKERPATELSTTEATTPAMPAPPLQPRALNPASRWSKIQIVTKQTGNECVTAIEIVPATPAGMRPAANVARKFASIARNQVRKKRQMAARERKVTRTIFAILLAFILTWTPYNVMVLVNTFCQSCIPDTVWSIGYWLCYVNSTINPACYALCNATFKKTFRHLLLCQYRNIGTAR

[8] = molecular target: Androgen receptor (Homo sapiens) (UniProt P10275); assay: Displacement of [3H]methyltrienolone from androgen receptor in human LNCaP cells assessed as residual binding level for radioligand at 10 uM measured after 1200 mins radiometric scintillation analysis relative to control; type: cell-based
[9] = molecular target: T2, Muscarinic acetylcholine receptor M2 (Homo sapiens, UniProt P08172); assay: Positive allosteric modulation of human M2 receptor/Gqi5 in presence of EC20 acetylcholine by calcium mobilization assay
T2 sequence (P08172 whole entry): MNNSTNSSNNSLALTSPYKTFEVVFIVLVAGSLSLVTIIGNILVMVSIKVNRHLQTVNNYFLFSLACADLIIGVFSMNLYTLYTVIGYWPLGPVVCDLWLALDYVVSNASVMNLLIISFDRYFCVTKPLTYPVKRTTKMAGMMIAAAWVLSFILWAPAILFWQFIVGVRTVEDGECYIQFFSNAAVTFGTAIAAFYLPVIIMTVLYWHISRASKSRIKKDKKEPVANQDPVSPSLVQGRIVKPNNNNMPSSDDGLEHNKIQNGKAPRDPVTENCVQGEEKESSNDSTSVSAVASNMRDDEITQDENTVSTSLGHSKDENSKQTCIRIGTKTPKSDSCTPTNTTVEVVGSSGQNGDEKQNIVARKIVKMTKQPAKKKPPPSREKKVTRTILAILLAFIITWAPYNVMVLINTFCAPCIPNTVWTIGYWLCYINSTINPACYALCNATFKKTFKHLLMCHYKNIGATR

[10] = Plasma clearance in dog; type: ADME, Canis lupus familiaris; conditions: read-out: CL(app)
[11] = molecular target: Alpha-1B adrenergic receptor (Homo sapiens) (UniProt P35368); assay: Displacement of [3H]-Prazosin from human adrenergic alpha 1B receptor expressed in Chem-1 cells assessed as residual binding level for radioligand at 10 uM incubated for 60 mins by radiometric scintillation analysis relative to control; type: cell-based
[12] = molecular target: Epidermal growth factor receptor (Homo sapiens) (UniProt P00533); assay: Displacement of [125I]-EGF from human EGF receptor expressed in A-431 cells assessed as residual binding level for radioligand at 10 uM incubated for 60 mins by radiometric scintillation analysis relative to control; type: cell-based
[13] = molecular target: Histamine H1 receptor (Homo sapiens) (UniProt P35367); assay: Displacement of [3H]pyrilamine from full length recombinant human histamine H1 receptor expressed in CHO-K1 cells assessed as residual binding level for radioligand at 10 uM after 180 mins by scintillation counting analysis relative to control; type: cell-based
Cytochrome P450 2D6 = Cytochrome P450 2D6 (Homo sapiens, UniProt P10635); assay: Inhibition of CYP2D6 (unknown origin); type: ADME
[14] = Half life in rat; type: ADME; conditions: in vivo
[15] = molecular target: Endothelin-1 receptor (Homo sapiens) (UniProt P25101); assay: Displacement of [125I]endothelin-1 from recombinant full length human recombinant ETA receptor expressed in CHO-S cells assessed as residual binding level for radioligand at 10 uM measured after 120 mins by radiometric scintillation analysis relative to control; type: cell-based
Macaca fascicularis = species on record: Macaca fascicularis; assay: Positive allosteric modulation of cynomolgus monkey M4 receptor relative to acetylcholine; conditions: filed as positive allosteric modulator
[16] = molecular target: B1 bradykinin receptor (Homo sapiens) (UniProt P46663); assay: Displacement of [3H]desArg10-KD from human recombinant Bradykinin B1 receptor expressed in CHO-K1 cells assessed as residual binding level for radioligand at 10 uM incubated for 60 mins by radiometric scintillation analysis relative to control; type: cell-based
[17] = molecular target: Muscarinic acetylcholine receptor M3 (Homo sapiens, UniProt P20309); assay: Positive allosteric modulation of human M3 receptor
[18] = molecular target: D(1A) dopamine receptor (Homo sapiens) (UniProt P21728); assay: Displacement of [3H]-SCH 23390 from recombinant full length human dopamine D1 receptor expressed in CHO cells assessed as residual binding level for radioligand at 10 uM after 120 mins by radiometric scintillation analysis relative to control; type: cell-based
[19] = molecular target: Beta-1 adrenergic receptor (Homo sapiens) (UniProt P08588); assay: Displacement of [125I]Cyanopindolol from recombinant full length human beta1 adrenoceptor expressed in CHO-K1 cells assessed as residual binding level for radioligand at 10 uM after 120 mins by radiometric scintillation analysis relative to control; type: cell-based
Mus musculus = species on record: Mus musculus; assay: Displacement of [3H]-PDBu from phorbol ester receptor in ICR mouse brain assessed as residual binding level for radioligand at 10 uM incubated for 60 mins by scintillation counting analysis relative to control; type: tissue-based

Chain of D(1A) dopamine receptor (Homo sapiens) (P21728 whole entry): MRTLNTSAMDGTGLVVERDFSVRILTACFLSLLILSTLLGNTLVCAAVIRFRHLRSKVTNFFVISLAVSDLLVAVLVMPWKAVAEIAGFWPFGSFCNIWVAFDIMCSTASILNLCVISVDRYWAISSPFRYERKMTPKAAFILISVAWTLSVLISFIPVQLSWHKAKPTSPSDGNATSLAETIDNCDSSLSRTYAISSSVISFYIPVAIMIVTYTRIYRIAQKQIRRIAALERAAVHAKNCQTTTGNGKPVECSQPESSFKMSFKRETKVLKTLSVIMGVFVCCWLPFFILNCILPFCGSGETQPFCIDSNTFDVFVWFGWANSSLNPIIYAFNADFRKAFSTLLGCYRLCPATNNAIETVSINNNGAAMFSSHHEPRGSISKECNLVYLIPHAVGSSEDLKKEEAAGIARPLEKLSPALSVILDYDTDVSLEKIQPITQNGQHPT
Chain of Muscarinic acetylcholine receptor M5 (P08911 whole entry): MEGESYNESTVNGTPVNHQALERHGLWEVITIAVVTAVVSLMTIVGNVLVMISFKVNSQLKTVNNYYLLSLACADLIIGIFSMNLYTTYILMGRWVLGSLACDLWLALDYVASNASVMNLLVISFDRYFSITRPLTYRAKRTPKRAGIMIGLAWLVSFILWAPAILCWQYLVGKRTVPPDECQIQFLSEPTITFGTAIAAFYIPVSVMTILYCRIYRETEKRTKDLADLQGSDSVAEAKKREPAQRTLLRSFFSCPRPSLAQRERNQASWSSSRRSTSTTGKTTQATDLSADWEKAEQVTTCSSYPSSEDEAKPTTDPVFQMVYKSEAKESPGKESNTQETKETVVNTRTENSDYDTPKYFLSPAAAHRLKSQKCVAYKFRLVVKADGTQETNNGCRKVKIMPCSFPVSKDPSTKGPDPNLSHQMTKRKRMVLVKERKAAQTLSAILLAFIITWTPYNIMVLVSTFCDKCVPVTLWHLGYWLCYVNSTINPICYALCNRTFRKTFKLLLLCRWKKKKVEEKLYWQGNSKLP
Chain of Androgen receptor (Homo sapiens) (P10275 whole entry): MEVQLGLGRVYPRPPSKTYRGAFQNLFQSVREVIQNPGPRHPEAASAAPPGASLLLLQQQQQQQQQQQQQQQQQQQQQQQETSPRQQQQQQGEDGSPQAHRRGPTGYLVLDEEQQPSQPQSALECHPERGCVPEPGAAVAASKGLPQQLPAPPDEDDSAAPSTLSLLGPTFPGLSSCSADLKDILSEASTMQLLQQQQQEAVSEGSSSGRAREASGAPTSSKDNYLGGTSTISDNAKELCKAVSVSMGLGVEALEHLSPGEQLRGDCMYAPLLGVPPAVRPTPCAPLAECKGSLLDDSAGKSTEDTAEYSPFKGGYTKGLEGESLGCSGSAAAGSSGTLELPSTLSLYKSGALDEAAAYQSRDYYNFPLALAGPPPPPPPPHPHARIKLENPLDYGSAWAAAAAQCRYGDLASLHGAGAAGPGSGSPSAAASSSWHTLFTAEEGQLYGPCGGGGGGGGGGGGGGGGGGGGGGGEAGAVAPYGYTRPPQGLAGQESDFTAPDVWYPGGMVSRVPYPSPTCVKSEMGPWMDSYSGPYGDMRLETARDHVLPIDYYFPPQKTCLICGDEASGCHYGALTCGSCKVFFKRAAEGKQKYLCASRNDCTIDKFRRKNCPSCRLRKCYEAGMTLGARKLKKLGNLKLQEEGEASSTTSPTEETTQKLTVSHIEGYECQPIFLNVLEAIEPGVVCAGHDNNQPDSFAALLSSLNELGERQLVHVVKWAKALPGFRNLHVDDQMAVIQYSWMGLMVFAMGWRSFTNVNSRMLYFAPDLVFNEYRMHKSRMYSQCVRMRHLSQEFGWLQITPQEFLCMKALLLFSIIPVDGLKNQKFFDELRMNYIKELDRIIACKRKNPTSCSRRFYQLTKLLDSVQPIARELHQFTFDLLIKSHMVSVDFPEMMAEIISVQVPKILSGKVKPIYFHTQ
Chain of Endothelin-1 receptor (Homo sapiens) (P25101 whole entry): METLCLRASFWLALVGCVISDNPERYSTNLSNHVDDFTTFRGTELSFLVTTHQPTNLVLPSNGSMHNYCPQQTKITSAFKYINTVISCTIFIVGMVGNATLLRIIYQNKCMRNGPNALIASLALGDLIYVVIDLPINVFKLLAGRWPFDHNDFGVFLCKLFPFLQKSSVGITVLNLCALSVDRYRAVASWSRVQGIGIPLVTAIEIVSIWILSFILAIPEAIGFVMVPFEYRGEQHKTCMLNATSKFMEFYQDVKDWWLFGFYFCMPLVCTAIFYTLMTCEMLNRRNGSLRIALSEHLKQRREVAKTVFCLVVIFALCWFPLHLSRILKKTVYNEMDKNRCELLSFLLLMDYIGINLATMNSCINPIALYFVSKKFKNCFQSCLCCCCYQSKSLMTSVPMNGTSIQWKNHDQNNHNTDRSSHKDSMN
Chain of Alpha-1B adrenergic receptor (Homo sapiens) (P35368 whole entry): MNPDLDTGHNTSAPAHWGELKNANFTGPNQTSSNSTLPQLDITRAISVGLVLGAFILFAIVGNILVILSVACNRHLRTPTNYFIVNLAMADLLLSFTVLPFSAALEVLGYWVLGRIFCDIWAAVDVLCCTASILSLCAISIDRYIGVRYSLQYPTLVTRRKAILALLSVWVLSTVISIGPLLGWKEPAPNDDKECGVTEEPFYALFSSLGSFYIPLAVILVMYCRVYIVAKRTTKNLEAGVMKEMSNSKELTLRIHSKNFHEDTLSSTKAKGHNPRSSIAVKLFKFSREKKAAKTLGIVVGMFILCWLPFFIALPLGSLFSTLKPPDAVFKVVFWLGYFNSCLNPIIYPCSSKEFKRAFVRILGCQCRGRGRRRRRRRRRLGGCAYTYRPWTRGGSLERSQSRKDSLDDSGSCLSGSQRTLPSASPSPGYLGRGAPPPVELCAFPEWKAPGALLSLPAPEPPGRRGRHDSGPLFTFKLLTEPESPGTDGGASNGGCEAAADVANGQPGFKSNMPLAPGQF
Chain of L-type calcium channel Cav1.2, benzothiazepine binding site (P22002 whole entry): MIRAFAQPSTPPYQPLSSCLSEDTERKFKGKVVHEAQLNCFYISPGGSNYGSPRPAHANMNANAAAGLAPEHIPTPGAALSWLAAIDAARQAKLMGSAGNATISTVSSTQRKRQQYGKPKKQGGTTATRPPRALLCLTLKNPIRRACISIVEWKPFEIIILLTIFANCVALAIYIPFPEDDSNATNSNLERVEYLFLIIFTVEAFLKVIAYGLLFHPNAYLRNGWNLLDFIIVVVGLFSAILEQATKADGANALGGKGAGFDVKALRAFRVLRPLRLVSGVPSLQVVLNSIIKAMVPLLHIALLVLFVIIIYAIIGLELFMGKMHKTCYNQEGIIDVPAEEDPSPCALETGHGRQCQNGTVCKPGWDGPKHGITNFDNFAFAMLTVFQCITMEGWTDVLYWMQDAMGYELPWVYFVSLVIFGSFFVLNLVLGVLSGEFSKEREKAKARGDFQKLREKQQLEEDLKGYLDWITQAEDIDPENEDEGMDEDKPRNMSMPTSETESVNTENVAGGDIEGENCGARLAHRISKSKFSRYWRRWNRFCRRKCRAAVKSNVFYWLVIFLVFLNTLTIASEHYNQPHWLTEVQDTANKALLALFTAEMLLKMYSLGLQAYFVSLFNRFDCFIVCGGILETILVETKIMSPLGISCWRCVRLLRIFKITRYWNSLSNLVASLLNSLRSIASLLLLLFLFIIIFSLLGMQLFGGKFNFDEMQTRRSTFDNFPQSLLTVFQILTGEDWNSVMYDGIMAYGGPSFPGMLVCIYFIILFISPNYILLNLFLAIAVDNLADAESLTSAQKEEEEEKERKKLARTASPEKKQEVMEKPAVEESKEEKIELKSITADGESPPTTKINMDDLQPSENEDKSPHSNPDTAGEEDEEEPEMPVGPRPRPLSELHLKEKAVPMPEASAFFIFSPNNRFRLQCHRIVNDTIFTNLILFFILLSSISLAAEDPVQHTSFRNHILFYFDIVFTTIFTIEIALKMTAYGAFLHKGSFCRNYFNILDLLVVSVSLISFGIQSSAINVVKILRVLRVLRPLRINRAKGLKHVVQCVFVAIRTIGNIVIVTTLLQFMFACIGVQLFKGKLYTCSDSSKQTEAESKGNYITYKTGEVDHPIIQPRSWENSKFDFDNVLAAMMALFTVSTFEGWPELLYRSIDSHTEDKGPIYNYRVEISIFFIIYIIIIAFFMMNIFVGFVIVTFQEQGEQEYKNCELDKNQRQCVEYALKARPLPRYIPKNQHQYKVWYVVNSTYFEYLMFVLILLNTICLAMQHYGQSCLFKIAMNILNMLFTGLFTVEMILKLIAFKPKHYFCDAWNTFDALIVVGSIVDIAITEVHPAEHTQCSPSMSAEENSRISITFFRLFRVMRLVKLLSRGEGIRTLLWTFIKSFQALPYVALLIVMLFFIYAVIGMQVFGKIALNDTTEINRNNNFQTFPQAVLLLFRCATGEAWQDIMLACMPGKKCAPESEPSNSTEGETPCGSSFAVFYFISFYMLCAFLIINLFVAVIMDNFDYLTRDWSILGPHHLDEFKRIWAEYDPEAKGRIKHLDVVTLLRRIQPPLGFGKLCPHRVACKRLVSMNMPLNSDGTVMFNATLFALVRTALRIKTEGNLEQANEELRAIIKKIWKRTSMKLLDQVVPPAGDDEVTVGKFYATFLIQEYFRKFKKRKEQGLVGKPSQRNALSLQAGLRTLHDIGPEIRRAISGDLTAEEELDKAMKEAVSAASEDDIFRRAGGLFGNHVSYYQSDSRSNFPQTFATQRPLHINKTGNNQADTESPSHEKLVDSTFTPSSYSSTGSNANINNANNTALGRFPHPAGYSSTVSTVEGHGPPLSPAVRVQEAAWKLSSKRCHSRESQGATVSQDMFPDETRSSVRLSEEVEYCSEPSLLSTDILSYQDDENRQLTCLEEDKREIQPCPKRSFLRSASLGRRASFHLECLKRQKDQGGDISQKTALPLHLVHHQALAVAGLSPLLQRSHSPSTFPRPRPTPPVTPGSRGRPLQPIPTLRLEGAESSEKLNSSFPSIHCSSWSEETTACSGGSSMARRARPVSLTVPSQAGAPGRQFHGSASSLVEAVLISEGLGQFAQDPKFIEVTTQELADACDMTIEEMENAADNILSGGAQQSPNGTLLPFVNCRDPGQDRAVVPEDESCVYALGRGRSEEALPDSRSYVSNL

## COc1nnc2sc(C(=O)NC3CN(c4ncc(C(F)(F)F)cn4)C3)c(N)c2c1C
[1]
  Kp uu at 1.5 h: 0.35
Rattus norvegicus [2]
  Activity: > 50%
Rattus norvegicus [3]
  Activity: > 50%
[4]
  activity at 3 h, 10 µM: > 50%
[5]
  pEC50: < 4.52
[6]
  Activity: > 50%
[7]
  pEC50: 7.05
[8]
  Activity: > 50%
[9]
  pEC50: < 4.52
[10]
  clearance: 5.9 mL/min/kg
[11]
  Activity: > 50%
[12]
  Activity: > 50%
[13]
  Activity: > 50%
Cytochrome P450 2D6
  pIC50: < 4.52
[14]
  half-life: 2.8 h
[15]
  Activity: > 50%
Macaca fascicularis
  %max: 57%
[16]
  Activity: > 50%
[17]
  pEC50: < 4.52
[18]
  Activity: > 50%
[19]
  Activity: > 50%
Mus musculus
  Activity: > 50%

From ChEMBL document CHEMBL4665653, “VU6005806/AZN-00016130, an advanced M positive allosteric modulator (PAM) profiled as a potential preclinical development candidate” (Bioorg Med Chem Lett, 2019)
